# According to US20110287547A1, “NUCLEIC ACID DELIVERY COMPOSITIONS AND METHODS” (priority 2008, published 2011):
# Like-named read-outs stand apart in the source and are kept apart here. Where a SMILES comes first, the peptide text is derived from it.
# Legend:
# A549 cells [1] = assay: Cytotoxicity assay (MTS), Example 2; settings: 46.9 mM CaCl2 only or in the complex
# Method: (§4) Cytoxicity Assay. Cytotoxicity of the complexes was determined by the CellTiter 96® Aqueous Cell Proliferation Assay kit (MTS assay) from Promega. A549 cells were plated on 96-well plates with approximately 8,000 cells/well and incubated in a humid 5% CO2 incubator at 37° C. After 18-24 hours incubation, the medium was removed and the cells were washed with 100 μl serum free medium. Cells were treated with the samples for 12-24 hours. The serum free medium were then removed and replaced with a mixture of 100 μl fresh culture medium and 20 μl MTS reagent solution. The cells were incubated for 1-4 hours at 37° C. in 5% CO2 incubator. Cell viability was assessed by measuring the absorbance at 490 nm by plate reader (SpectraMax M5) and expressed as the ratio of the A490 of cells treated with inhibitors over the control samples.
# A549 cells [2] = assay: In vitro cell transfection (pGL3 luciferase gene expression), Example 1 method; type: cell-based, human; settings: 1 day after transfection, 75, 150, 300 mM CaCl2, varying N/P ratios
# Method: Particles of nano-sized TAT-Ca complexes were synthesized by rapidly adding and stirring 10 μL of either (0.1 μg/μL) pDNA or (30-50 nM) siRNA to 15 μL (1 μg/μL) of the TAT solution. To this solution, 15 μL of CaCl2 of known molarity (e.g. 0.3 M) was added and mixed by vigorous pipetting followed by 20-30 minutes incubation at room temperature or at 4° C. prior to use.
# Preparation of PEI/pDNA Complexes. Polyethylenimine-DNA Complexes were prepared by adding 10 μl (0.1 μg/μL) of pDNA solution to 15 μL (N/P ratio of 5 or 10) polyethylenimine (PEI) solution drop-wise while stirring. Complexes were incubated at room temperature for 20-30 minutes before dilution 1.7 times (15 μL) with the appropriate buffer (e.g. nuclease-free water or CaCl2). Complexes were freshly prepared before each individual experiment.
# In Vitro Cell Transfection Studies. A549 cells were trypsinized, counted and diluted to a concentration of approximately 80,000 cells/mL. Then 0.1 mL of that dilution was added to each well of a 96-well plate and the cells were incubated in a humidified atmosphere of 5% CO2 incubator at 37° C. for 24 hours. Immediately before transfection, the cells were washed once with PBS and 100 μl sample (20% of complex to 80% of serum free cell culture medium) was added to each well. Cells were incubated with the complexes for 5 hours. The transfection agent was then removed by aspiration and 100 μL of fresh serum medium was added followed by further incubation. The Luciferase Assay System from Promega was used to determine gene expression following the manufacturer's recommended protocol. The light units were normalized against protein concentration in the cells extracts, which were measured using the Coomassie Plus™ Protein Assay (Thermo Scientific). The transfection results were expressed as Relative Light Units (RLU) per mg of cellular protein.
# [3] = Assessment of cytotoxicity (MTS Assay), Example 4; type: cell-based, human; settings: human, A549-luc-C8 cells, up to 5 mg/mL
# Method: (§1) Cell culture. Culturing of human epithelial lung cell line A549-luc-C8, stably expressing luciferase, was performed according to the protocol provided by Caliper LifeSciences. A549-luc-C8 cells were grown in RPMI-1640 supplemented with 10% v/v heat inactivated FBS and 1% v/v Penicillin/streptomycin at 37° C. in a humidified air atmosphere containing 5% CO2.
# (§2) Assessment of cytotoxicity (MTS Assay). […] A549-luc-C8 cells were grown as described in the transfection experiments. Cells were treated with the TAT, dTAT or PEI for approximately 24 hours. […] The cells were incubated for 3 hours at 37° C. in the 5% CO2 incubator. The absorbance of each well was then measured at 490 nm using a microtiter plate reader (SpectraMax, M25, Molecular Devices Corp., CA) to determine cell viability.
# Balb/C mice = settings: 200 μL tail vein, Balb/C mouse
# Method: Assessment of toxicity in vivo. Stock solutions of 0.3 M CaCl2, 10% Glucose, and 174 mg/ml dTAT were prepared. Non-silencing control siRNA (Dharmacon; Sense: […]tt; SEQ ID NO 16, Antisense: […]tt; SEQ ID NO 17) was dissolved in nuclease-free water (61.5 nM). The dTAT/siRNA complexes were prepared in 1.5 ml microcentrifuge tubes by mixing stock solutions (at concentrations indicated above). Formulation 1 used 15 μL of dTAT, 10 μL siRNA, 25 μL Glucose, and 5 μl CaCl2. Each ingredient was added to the previous component(s) and mixed by pipetting between each addition. Four of these formulas were individually prepared and kept at 4° C. for 20 minutes, then kept at room temperature for 5 minutes prior to injection. Remaining formulations (2-10) were prepared by a serial 1:2 dilution of stock siRNA solution and stock dTAT solution following the same experimental protocol as described above. The dTAT/siRNA complexes (volume=260 μl) were prepared for each individual animal and each 0.2 mL injection volume contained approximately the following amounts of dTAT peptide (mg/ml): 40, 20, 10, 5, 2.5, 1.25, 0.64, 0.32, 0.16, 0. Each formulation was administered via 200 μL injection into the tail vein of 12 week old male Balb/C mice (10 animals total).
# In vivo dose escalating toxicity study. […] A dose escalating study was conducted in an effort to establish a lethal dose (LD50) for the dTAT peptide. For these studies, only a minimal amount of siRNA was included so that animal responses would be indicative of the toxicity of dTAT. Animals were administered the formulations via tail vein injection (200 μL) at doses up to 1,000 mg/kg of dTAT (Table 5).
# A549 cells [4] = test system: A549 cells
# Method: as §4
# [5] = Cytotoxicity Assay (MTS Assay), Example 1 and CPPs; type: cell-based, human; settings: human
# Method: (§3) Cell Culture. Culturing of human epithelial lung cell line A549 was performed according to the protocol provided by the American Type Culture Collection. A549 was grown in F-12K supplemented with 10% v/v FBS and 1% v/v Penicillin/streptomycin at 37° C. in a humidified air atmosphere containing 5% CO2.
# as §2, with “Cytotoxicity Assay” for “Assessment of cytotoxicity”, “A549” for “A549-luc-C8”, “samples” for “TAT, dTAT or PEI”
# A549 cells [6] = assay: Cytotoxicity Assay (MTS Assay), Example 1 and CPPs; type: cell-based, human; settings: A549 cells, MTS
# Method: as §3
# as §2, with “Cytotoxicity Assay” for “Assessment of cytotoxicity”, “A549” for “A549-luc-C8”, “samples” for “TAT, dTAT or PEI”
# A549-luc-C8 cells = assay: Assessment of cytotoxicity (MTS Assay), Example 4; type: cell-based, human; settings: 24 hours, up to 5 mg/mL
# Method: as §1, §2
compound,measurement,setting,value
"[Ca+2].[Cl-].[Cl-] [CaCl2, Calcium chloride]",cytotoxicity,A549 cells [1],did not show cytotoxicity
H-RKKRRHRRR-NH2 [TAT2],added CaCl2 concentration at which complexes showed a higher level of gene expression,A549 cells [2],150 mM
N=C(N)NCCC[C@H](NC(=O)[C@H](CCCCN)NC(=O)[C@H](CCCCN)NC(=O)[C@H](CCCNC(=N)N)NC(=O)[C@H](CCCNC(=N)N)NC(=O)[C@H](Cc1c[nH]cn1)NC(=O)[C@H](CCCNC(=N)N)NC(=O)[C@H](CCCNC(=N)N)NC(=O)[C@H](CCCNC(=N)N)NC(=O)[C@H](CCC(N)=O)NC(=O)[C@H](CCCNC(=N)N)NC(=O)[C@H](CCCNC(=N)N)NC(=O)[C@H](CCCCN)NC(=O)[C@H](CCCCN)NC(=O)[C@@H](N)CCCNC(=N)N)C(=O)O [dTAT] (H-RKKRRQRRRHRRKKR-OH),IC50 at 24 h,[3],~4000 µg/mL
same,Toxicity/Behavioral Effects,"Balb/C mice; dTAT 0.16 mg/mL, total dose 3.90 mg/Kg, siRNA 0.03 nM",Normal
same,Toxicity/Behavioral Effects,"Balb/C mice; dTAT 0.32 mg/mL, total dose 7.81 mg/Kg, siRNA 0.07 nM",Normal
same,Toxicity/Behavioral Effects,"Balb/C mice; dTAT 0.64 mg/mL, total dose 15.63 mg/Kg, siRNA 0.14 nM",Normal
same,Toxicity/Behavioral Effects,"Balb/C mice; dTAT 1.25 mg/mL, total dose 31.25 mg/Kg, siRNA 0.29 nM",Normal
same,Toxicity/Behavioral Effects,"Balb/C mice; dTAT 2.5 mg/mL, total dose 62.5 mg/Kg, siRNA 0.59 nM",Normal
same,Toxicity/Behavioral Effects,"Balb/C mice; dTAT 5 mg/mL, total dose 125 mg/Kg, siRNA 1.18 nM",Normal
same,Toxicity/Behavioral Effects,"Balb/C mice; dTAT 10 mg/mL, total dose 250 mg/Kg, siRNA 2.36 nM",Normal
same,Toxicity/Behavioral Effects,"Balb/C mice; dTAT 20 mg/mL, total dose 500 mg/Kg, siRNA 4.73 nM",Normal
protamine,IC50 (cytotoxicity),A549 cells [4],890 µg/mL
CSCC[C@H](NC(=O)[C@H](CCCCN)NC(=O)[C@H](Cc1c[nH]c2ccccc12)NC(=O)[C@H](CCCCN)NC(=O)[C@@H](N)CCCCN)C(=O)N[C@@H](CCCNC(=N)N)C(=O)N[C@@H](CCCNC(=N)N)C(=O)N[C@@H](CC(N)=O)C(=O)N[C@@H](CCC(N)=O)C(=O)N[C@@H](Cc1ccccc1)C(=O)N[C@@H](Cc1c[nH]c2ccccc12)C(=O)N[C@H](C(=O)N[C@@H](CCCCN)C(=O)N[C@H](C(=O)N[C@@H](CCC(N)=O)C(=O)N[C@@H](CCCNC(=N)N)C(=O)NCC(=O)O)C(C)C)C(C)C [Alp] (H-KKWKMRRNQFWVKVQRG-OH),IC50 at 24 h,[5],~2140 µg/mL
H-RKKRRQRRRHRRKKR-NH2 [TAT5],added CaCl2 concentration at which complexes showed a higher level of gene expression,A549 cells [2],300 mM
H-RKKRRQHRRR-NH2 [TAT3],added CaCl2 concentration at which complexes showed a higher level of gene expression,A549 cells [2],150 mM
H-RRKRRQHRRR-NH2 [TAT4],added CaCl2 concentration at which complexes showed a higher level of gene expression,A549 cells [2],150 mM
N=C(N)NCCC[C@H](NC(=O)[C@H](CCCNC(=N)N)NC(=O)[C@H](CCCNC(=N)N)NC(=O)[C@H](CCC(N)=O)NC(=O)[C@H](CCCNC(=N)N)NC(=O)[C@H](CCCNC(=N)N)NC(=O)[C@H](CCCCN)NC(=O)[C@H](CCCCN)NC(=O)[C@@H](N)CCCNC(=N)N)C(N)=O [TAT],cytotoxic effects,A549 cells [6],no evidence of cytotoxic effects
same,cytotoxicity,A549-luc-C8 cells,almost no evidence of cytotoxicity
